Test results: patent US9096560B2, “5-heterocyclylalkyl-3-hydroxy-2-phenylcyclopent-2-enones as herbicides” (Syngenta Limited, priority 2008, dated 2015)

Assays:
Format in all cases: in vivo
[1] = system: Alopecurus myosuroides (ALOMY); assay: Example B pre-emergence herbicidal test, ALOMY; settings: Alopecurus myosuroides, 312 h, rate 250 g/ha, evaluated after 13 days, 100=total damage to plant, 0=no damage to plant
Method in brief: (§1)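 After sowing in standard soil, pots spent a day in the glasshouse (24/16° C, 14 h photoperiod, 65% humidity) before spraying with compound in acetone/water 50:50 with 0.5% Tween 20. Watering followed twice a day, and plants were evaluated 13 days on, with 100 meaning complete damage.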

Lolium perenne (LOLPE) [2] = assay: Example B post-emergence herbicidal test, LOLPE; settings: Lolium perenne, 312 h, rate 250 g/ha, evaluated after 13 days, scale 0-100, read-out: Post-emergence activity LOLPE (100=total damage to plant; 0=no damage to plant)
Method in brief: (§2)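 Foliar application to 8-day-old pot-grown seedlings in a glasshouse (24/16 °C, 14 h photoperiod, 65% humidity). Spray solution was derived from an acetone/water (50:50) formulation with 0.5% Tween 20. Injury was assessed 13 days later on a 0–100 scale.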

Lolium perenne (LOLPE) [3] = assay: Example B pre-emergence herbicidal test, LOLPE; settings: Lolium perenne, 312 h, rate 250 g/ha, evaluated after 13 days, 100=total damage to plant, 0=no damage to plant
Method in brief: as §1

Avena fatua (AVEFA) [4] = assay: Example B pre-emergence herbicidal test, AVEFA; settings: Avena fatua, 312 h, rate 250 g/ha, evaluated after 13 days, 100=total damage to plant, 0=no damage to plant
Method in brief: as §1

Avena fatua (AVEFA) [5] = assay: Example B post-emergence herbicidal test, AVEFA; settings: Avena fatua, 312 h, rate 250 g/ha, evaluated after 13 days, scale 0-100, read-out: Post-emergence activity AVEFA (100=total damage to plant; 0=no damage to plant)
Method in brief: as §2

[6] = system: Echinochloa crus-galli (ECHCG); assay: Example B post-emergence herbicidal test, ECHCG; settings: Echinochloa crus-galli, 312 h, rate 250 g/ha, evaluated after 13 days, scale 0-100, read-out: Post-emergence activity ECHCG (100=total damage to plant; 0=no damage to plant)
Method in brief: as §2

[7] = system: Echinochloa crus-galli (ECHCG); assay: Example B pre-emergence herbicidal test, ECHCG; settings: Echinochloa crus-galli, 312 h, rate 250 g/ha, evaluated after 13 days, 100=total damage to plant, 0=no damage to plant
Method in brief: as §1

[8] = system: Alopecurus myosuroides (ALOMY); assay: Example B post-emergence herbicidal test, ALOMY; settings: Alopecurus myosuroides, 312 h, rate 250 g/ha, evaluated after 13 days, scale 0-100, read-out: Post-emergence activity ALOMY (100=total damage to plant; 0=no damage to plant)
Method in brief: as §2

SMILES | pest or weed control at 250 g/ha [1] [%] | pest or weed control at 250 g/ha (Lolium perenne (LOLPE) [2]) [%] | pest or weed control at 250 g/ha (Lolium perenne (LOLPE) [3]) [%] | pest or weed control at 250 g/ha (Avena fatua (AVEFA) [4]) [%] | pest or weed control at 250 g/ha (Avena fatua (AVEFA) [5]) [%] | pest or weed control at 250 g/ha [6] [%] | pest or weed control at 250 g/ha [7] [%] | pest or weed control at 250 g/ha [8] [%]
Cc1cc(C)c(C2C(=O)CC(CC3CCN(c4ccc(Cl)cc4)CC3)C2=O)c(C)c1 (stereo not drawn) [Compound T60] | 10 | 20 | 10 | 0 | 10 | 10 | 0 | 30
Cc1cc(-c2ccc(F)cc2)cc(C)c1C1C(=O)C/C(=C\C2CCOCC2)C1=O (stereo not drawn) [Compound T61] | 70 | 90 | 90 | 80 | 100 | 100 | 90 | 90
Cc1cc(-c2ccc(F)cc2)cc(C)c1C1C(=O)CC(CC2CCOCC2)C1=O (stereo not drawn) [Compound T63] | 70 | 90 | 100 | 90 | 100 | 90 | 100 | 90
Cc1cc(-c2ccc(F)c(Cl)c2)cc(C)c1C1C(=O)C/C(=C\C2CCOCC2)C1=O (stereo not drawn) [Compound T65] | 70 | 90 | 80 | 80 | 100 | 100 | 100 | 90
Cc1cc(C)c(C2C(=O)CC(CC3CCN(C(=O)Oc4ccccc4)CC3)C2=O)c(C)c1 (stereo not drawn) [Compound T68] | 30 | 90 | 90 | 40 | 90 | 90 | 50 | 60
CCCCOC(=O)N1CCC(CC2CC(=O)C(c3c(C)cc(C)cc3C)C2=O)CC1 (stereo not drawn) [Compound T69] | 0 | 30 | 10 | 10 | 30 | 20 | 20 | 30
Cc1cc(C)c(C2C(=O)CC(CC3CCN(C(=O)c4ccccc4)CC3)C2=O)c(C)c1 (stereo not drawn) [Compound T70] | 20 | 80 | 70 | 70 | 100 | 80 | 60 | 70
Cc1cc(C)c(C2C(=O)CC(CC3CCN(C(=O)c4ccc(Cl)cc4Cl)CC3)C2=O)c(C)c1 (stereo not drawn) [Compound T71] | 20 | 40 | 30 | 20 | 80 | 70 | 10 | 30
Cc1cc(C)c(C2C(=O)CC(CC3CCN(C(=O)c4ccccc4C)CC3)C2=O)c(C)c1 (stereo not drawn) [Compound T72] | 30 | 80 | 60 | 20 | 80 | 90 | 80 | 50
Cc1cc(C)c(C2C(=O)CC(CC3CCN(C(=O)c4cccc(Cl)c4)CC3)C2=O)c(C)c1 (stereo not drawn) [Compound T73] | 40 | 80 | 80 | 80 | 100 | 90 | 80 | 90
Cc1cc(C)c(C2C(=O)CC(CC3CCN(C(=O)c4ccc(Cl)c(Cl)c4)CC3)C2=O)c(C)c1 (stereo not drawn) [Compound T74] | 30 | 40 | 30 | 20 | 90 | 100 | 50 | 70
Cc1cc(C)c(C2C(=O)CC(CC3CCN(C(=O)c4ccc(Cl)cc4)CC3)C2=O)c(C)c1 (stereo not drawn) [Compound T76] | 30 | 40 | 60 | 20 | 100 | 90 | 60 | 90
Cc1cc(C)c(C2C(=O)CC(CC3CCN(C(=O)c4ccc(-c5ccccc5)cc4)CC3)C2=O)c(C)c1 (stereo not drawn) [Compound T77] | 0 | 40 | 0 | 0 | 40 | 20 | 0 | 30
Cc1ccc(C(=O)N2CCC(CC3CC(=O)C(c4c(C)cc(C)cc4C)C3=O)CC2)cc1 (stereo not drawn) [Compound T78] | 20 | 50 | 30 | 0 | 40 | 70 | 30 | 40
Cc1cc(C)c(C2C(=O)CC(CC3CCN(C(=O)C(C)(C)C)CC3)C2=O)c(C)c1 (stereo not drawn) [Compound T79] | 60 | 60 | 90 | 20 | 80 | 70 | 60 | 60
Cc1cc(C)c(C2C(=O)CC(CC3CCN(C(=O)C(C)C)CC3)C2=O)c(C)c1 (stereo not drawn) [Compound T80] | 70 | 90 | 100 | 70 | 100 | 80 | 70 | 90
COCC(=O)N1CCC(CC2CC(=O)C(c3c(C)cc(C)cc3C)C2=O)CC1 (stereo not drawn) [Compound T81] | 80 | 90 | 80 | 80 | 100 | 80 | 60 | 90
Cc1cc(C)c(C2C(=O)CC(CC3CCN(C(=O)Cc4ccccc4)CC3)C2=O)c(C)c1 (stereo not drawn) [Compound T82] | 50 | 90 | 90 | 50 | 100 | 80 | 60 | 90
